Experimental data taken from patent EP3046573B1, “AMYLIN ANALOGUES” (Zealand Pharma A/S, priority 2013, dated 2015).
pEC50: −log10 of the molar value. Like-named read-outs stand apart in the source and are kept apart here. Numbered stars: 1 amine (or outer) side, 2 acyl side, 3 side chain; on linkers, the order of the positions; unused ones are H or OH. Bridge positions count the residues as written; N and C are the ends. Square brackets hold non-standard residues; d marks the D form. Peptide text beside a SMILES is read from it. * marks the point of attachment. C20 diacid = O=C(O)CCCCCCCCCCCCCCCCCCC(=O)*; γGlu = O=C(O)[C@H](CCC(=O)[*:2])N[*:1]; NMeI = CC[C@H](C)[C@H](NC)C(=O)O; Sar = CNCC(=O)O

What was measured:
[1] = molecular target: T1, human calcitonin receptor (hCTR2) (Homo sapiens, UniProt P30988); assay: hCTR2 assay: induction of cAMP (AlphaScreen cAMP Assay kit) in COS7 cells expressing hCTR2; format: cell-based
T1 construct: expressed in transfected cells
T1 sequence (P30988 25-474): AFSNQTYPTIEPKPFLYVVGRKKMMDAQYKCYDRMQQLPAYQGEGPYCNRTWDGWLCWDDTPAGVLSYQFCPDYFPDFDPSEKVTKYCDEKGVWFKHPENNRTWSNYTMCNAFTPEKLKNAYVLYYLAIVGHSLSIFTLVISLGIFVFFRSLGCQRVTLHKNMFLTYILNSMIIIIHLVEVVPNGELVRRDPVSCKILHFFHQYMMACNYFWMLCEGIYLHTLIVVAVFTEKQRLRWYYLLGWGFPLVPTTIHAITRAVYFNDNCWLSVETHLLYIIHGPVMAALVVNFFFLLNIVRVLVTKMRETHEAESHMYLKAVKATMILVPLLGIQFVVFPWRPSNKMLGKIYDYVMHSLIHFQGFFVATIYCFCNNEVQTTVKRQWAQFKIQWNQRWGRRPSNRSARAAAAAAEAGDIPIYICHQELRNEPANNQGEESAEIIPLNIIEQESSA
Outline: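 COS7 stable hCTR2 clone (RAMP-free); peptide dose-response 15 min 37° C in Tyrode pH 7.4 + 100 µM IBMX + 0.1% casein; lysis 10 min RT; AlphaScreen cAMP; 4PL fit.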

[2] = molecular target: T2, human amylin receptor 3 (hAMYR3) consisting of hCTR2 co-expressed with human Receptor Activity Modifying Protein 3 (hRAMP3) (Homo sapiens, UniProt O60896+P30988); assay: hAMYR3 assay: induction of cAMP (AlphaScreen cAMP Assay kit) in COS7 cells expressing hAMYR3; format: cell-based
T2 construct: expressed in transfected cells
T2 sequence (P30988 25-474): T1 sequence (P30988 25-474)
T2 sequence (O60896 24-148 partner): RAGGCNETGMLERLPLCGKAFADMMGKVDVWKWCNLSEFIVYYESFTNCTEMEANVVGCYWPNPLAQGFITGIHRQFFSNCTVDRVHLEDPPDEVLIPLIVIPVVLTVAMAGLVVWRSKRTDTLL
Outline: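 Stable COS7 clone co-expressing hCTR2 and hRAMP3, stimulated 15 min at 37° C with increasing peptide in Tyrode buffer pH 7.4 with 100 µM IBMX and 0.1% casein. cAMP measured by AlphaScreen after lysis; EC50 and % efficacy versus pramlintide from 4PL fit.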

[3] = Solubility assessment (turbidity absorbance at 325 nm); format: physicochemical; settings: stock 2 mg/ml diluted 1:1, ambient temperature (typically 25°C), n=1; for Solubility, Acetate buffer pH 4: 100 mM acetate buffer pH 4.0; for Solubility, Acetate buffer pH 5: 100 mM acetate buffer pH 5.0; for Solubility, Histidine buffer pH 6: 100 mM histidine buffer pH 6.0; for Solubility, Histidine buffer pH 7: 100 mM histidine buffer pH 7.0; for Solubility, Phosphate buffer pH 6: 100 mM phosphate buffer pH 6.0; for Solubility, Phosphate buffer pH 7: 100 mM phosphate buffer pH 7.0; for Solubility, Phosphate buffer pH 7.5: 100 mM phosphate buffer pH7.5
Outline: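 Peptide stock (2 mg/ml, water pH 2.5) diluted 1:1 into 100 mM acetate (pH 4.0, 5.0), histidine (pH 6.0, 7.0) or phosphate (pH 6.0–7.5) buffer; absorbance at 325 nm read at about 25°C, n=1. A325 ≤ 0.02 taken as solubility ≥ 1 mg/ml.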

[4] = cAMP induction in COS7 cells expressing hCTR2, average of a minimum of 3 determinations, read-out: hCTR2 EC50
[5] = cAMP induction in COS7 cells expressing hAMYR3, average of a minimum of 3 determinations, read-out: hAMY R3 EC50

SMILES	pEC50 [1, 4]	pEC50 [2]	Solubility, Acetate buffer pH 4 [3]	Solubility, Acetate buffer pH 5 [3]	Solubility, Histidine buffer pH 6 [3]	Solubility, Histidine buffer pH 7 [3]	Solubility, Phosphate buffer pH 6 [3]	Solubility, Phosphate buffer pH 7 [3]	Solubility, Phosphate buffer pH 7.5 [3]	pEC50 [1]	pEC50 [2, 5]
CC[C@H](C)[C@@H](C(=O)N[C@@H](CC(C)C)C(=O)N[C@@H](CO)C(=O)N[C@@H](CO)C(=O)N[C@H](C(=O)N[C@@H](CCC(=O)O)C(=O)N[C@H](C(=O)NCC(=O)N[C@@H](CO)C(=O)N[C@@H](CCC(=O)O)C(=O)N[C@H](C(=O)N1CCC[C@H]1C(N)=O)[C@@H](C)O)C(C)C)[C@@H](C)O)N(C)C(=O)[C@H](C)NC(=O)CN(C)C(=O)[C@H](Cc1ccccc1)NC(=O)[C@H](CO)NC(=O)[C@H](CO)NC(=O)[C@H](CO)NC(=O)[C@H](CO)NC(=O)[C@H](CCCNC(=N)N)NC(=O)[C@H](Cc1c[nH]cn1)NC(=O)[C@H](CC(C)C)NC(=O)[C@H](Cc1ccccc1)NC(=O)[C@H](CCC(=O)O)NC(=O)[C@H](C)NC(=O)[C@H](CC(C)C)NC(=O)[C@H](CCCNC(=N)N)NC(=O)[C@H](C)NC(=O)[C@@H](NC(=O)[C@H](C)NC(=O)[C@@H]1CSSC[C@H](NC(=O)[C@H](CCCNC(=N)N)NC(=O)CC[C@H](NC(=O)CCCCCCCCCCCCCCCCCCC(=O)O)C(=O)O)C(=O)N[C@@H](CC(=O)O)C(=O)N[C@@H]([C@@H](C)O)C(=O)N[C@@H](C)C(=O)N[C@@H]([C@@H](C)O)C(=O)N1)[C@@H](C)O [Compound 145, [19CD]-isoGlu-RC()DTATC()ATARLAEFLHRSSSSF-Gly(Me)-A-Ile(Me)-LSSTEVGSETP-NH2] ({C20 diacid-γGlu}-RCDTATCATARLAEFLHRSSSSF[Sar]A[NMeI]LSSTEVGSETP-NH2; disulfide 2-7)	10.04	9.66	SS (SS indicates solubility ≥ 1mg/ml)	SS (SS indicates solubility ≥ 1mg/ml)	SS (SS indicates solubility ≥ 1mg/ml)	SS (SS indicates solubility ≥ 1mg/ml)	SS (SS indicates solubility ≥ 1mg/ml)	SS (SS indicates solubility ≥ 1mg/ml)	SS (SS indicates solubility ≥ 1mg/ml)	–	–
CC[C@H](C)[C@@H](C(=O)N[C@@H](CC(C)C)C(=O)N[C@@H](CO)C(=O)N[C@@H](CO)C(=O)N[C@H](C(=O)N[C@@H](CCC(=O)O)C(=O)N[C@H](C(=O)NCC(=O)N[C@@H](CO)C(=O)N[C@@H](CCC(=O)O)C(=O)N[C@H](C(=O)N1CCC[C@H]1C(N)=O)[C@@H](C)O)C(C)C)[C@@H](C)O)N(C)C(=O)[C@H](C)NC(=O)CN(C)C(=O)[C@H](Cc1ccccc1)NC(=O)[C@H](CO)NC(=O)[C@H](CO)NC(=O)[C@H](CO)NC(=O)[C@H](CO)NC(=O)[C@H](CCCNC(=N)N)NC(=O)[C@H](Cc1c[nH]cn1)NC(=O)[C@H](CC(C)C)NC(=O)[C@H](Cc1ccccc1)NC(=O)[C@H](CCC(=O)O)NC(=O)[C@H](C)NC(=O)[C@H](CC(C)C)NC(=O)[C@H](CCCNC(=N)N)NC(=O)[C@H](C)NC(=O)[C@@H](NC(=O)[C@H](C)NC(=O)[C@@H]1CSSC[C@H](NC(=O)[C@H](CCCNC(=N)N)NC(=O)CC[C@H](NC(=O)CCCCCCCCCCCCCCCCCCC(=O)O)C(=O)O)C(=O)N[C@@H](CCC(=O)O)C(=O)N[C@@H]([C@@H](C)O)C(=O)N[C@@H](C)C(=O)N[C@@H]([C@@H](C)O)C(=O)N1)[C@@H](C)O [Compound 146, [19CD]-isoGlu-RC()ETATC()ATARLAEFLHRSSSSF-Gly(Me)-A-Ile(Me)-LSSTEVGSETP-NH2] ({C20 diacid-γGlu}-RCETATCATARLAEFLHRSSSSF[Sar]A[NMeI]LSSTEVGSETP-NH2; disulfide 2-7)	10.04	9.82	SS (SS indicates solubility ≥ 1mg/ml)	SS (SS indicates solubility ≥ 1mg/ml)	SS (SS indicates solubility ≥ 1mg/ml)	SS (SS indicates solubility ≥ 1mg/ml)	SS (SS indicates solubility ≥ 1mg/ml)	SS (SS indicates solubility ≥ 1mg/ml)	SS (SS indicates solubility ≥ 1mg/ml)	–	–
CC[C@H](C)[C@@H](C(=O)N[C@@H](CC(C)C)C(=O)N[C@@H](CO)C(=O)N[C@@H](CO)C(=O)N[C@H](C(=O)N[C@@H](CCC(=O)O)C(=O)N[C@H](C(=O)NCC(=O)N[C@@H](CO)C(=O)N[C@@H](CCC(=O)O)C(=O)N[C@H](C(=O)N1CCC[C@H]1C(N)=O)[C@@H](C)O)C(C)C)[C@@H](C)O)N(C)C(=O)[C@H](C)NC(=O)CN(C)C(=O)[C@H](Cc1ccccc1)NC(=O)[C@H](CO)NC(=O)[C@H](CO)NC(=O)[C@H](CO)NC(=O)[C@H](CO)NC(=O)[C@H](CCCNC(=N)N)NC(=O)[C@H](Cc1c[nH]cn1)NC(=O)[C@H](CC(C)C)NC(=O)[C@H](Cc1ccccc1)NC(=O)[C@H](CCC(=O)O)NC(=O)[C@H](C)NC(=O)[C@H](CC(C)C)NC(=O)[C@H](CCCNC(=N)N)NC(=O)[C@H](C)NC(=O)[C@@H](NC(=O)[C@H](C)NC(=O)[C@@H]1CSSC[C@H](NC(=O)[C@H](CCCNC(=N)N)NC(=O)CC[C@H](NC(=O)CCCCCCCCCCCCCCCCCCC(=O)O)C(=O)O)C(=O)N2CCC[C@H]2C(=O)N[C@@H]([C@@H](C)O)C(=O)N[C@@H](C)C(=O)N[C@@H]([C@@H](C)O)C(=O)N1)[C@@H](C)O [Compound 147, [19CD]-isoGlu-RC()PTATC()ATARLAEFLHRSSSSF-Gly(Me)-A-Ile(Me)-LSSTEVGSETP-NH2] ({C20 diacid-γGlu}-RCPTATCATARLAEFLHRSSSSF[Sar]A[NMeI]LSSTEVGSETP-NH2; disulfide 2-7)	–	–	SS (SS indicates solubility ≥ 1mg/ml)	II (II indicates solubility ≤ 1 mg/ml)	SS (SS indicates solubility ≥ 1mg/ml)	SS (SS indicates solubility ≥ 1mg/ml)	SS (SS indicates solubility ≥ 1mg/ml)	SS (SS indicates solubility ≥ 1mg/ml)	SS (SS indicates solubility ≥ 1mg/ml)	9.80	9.80
CC[C@H](C)[C@@H](C(=O)N[C@@H](CC(C)C)C(=O)N[C@@H](CO)C(=O)N[C@@H](CO)C(=O)N[C@H](C(=O)N[C@@H](CCC(=O)O)C(=O)N[C@H](C(=O)NCC(=O)N[C@@H](CO)C(=O)N[C@@H](CCC(=O)O)C(=O)N[C@H](C(=O)N1CCC[C@H]1C(N)=O)[C@@H](C)O)C(C)C)[C@@H](C)O)N(C)C(=O)[C@H](C)NC(=O)CN(C)C(=O)[C@H](Cc1ccccc1)NC(=O)[C@H](CO)NC(=O)[C@H](CO)NC(=O)[C@H](CO)NC(=O)[C@H](CO)NC(=O)[C@H](CCCNC(=N)N)NC(=O)[C@H](Cc1c[nH]cn1)NC(=O)[C@H](CC(C)C)NC(=O)[C@H](Cc1ccccc1)NC(=O)[C@H](CCC(=O)O)NC(=O)[C@H](C)NC(=O)[C@H](CC(C)C)NC(=O)[C@H](CCCNC(=N)N)NC(=O)[C@H](CC(=O)O)NC(=O)[C@@H](NC(=O)[C@H](C)NC(=O)[C@@H]1CSSC[C@H](NC(=O)[C@H](CCCNC(=N)N)NC(=O)CC[C@H](NC(=O)CCCCCCCCCCCCCCCCCCC(=O)O)C(=O)O)C(=O)N[C@@H](CO)C(=O)N[C@@H]([C@@H](C)O)C(=O)N[C@@H](C)C(=O)N[C@@H]([C@@H](C)O)C(=O)N1)[C@@H](C)O [Compound 148, [19CD]-isoGlu-RC()STATC()ATDRLAEFLHRSSSSF-Gly(Me)-A-Ile(Me)-LSSTEVGSETP-NH2] ({C20 diacid-γGlu}-RCSTATCATDRLAEFLHRSSSSF[Sar]A[NMeI]LSSTEVGSETP-NH2; disulfide 2-7)	9.85	–	SS (SS indicates solubility ≥ 1mg/ml)	SS (SS indicates solubility ≥ 1mg/ml)	SS (SS indicates solubility ≥ 1mg/ml)	SS (SS indicates solubility ≥ 1mg/ml)	SS (SS indicates solubility ≥ 1mg/ml)	SS (SS indicates solubility ≥ 1mg/ml)	SS (SS indicates solubility ≥ 1mg/ml)	–	9.77
